For data set [1], the system named is PC3 cells. Nature of the data set: Confocal fluorescence microscopy colocalization with MitoTracker. The settings on record: 1 µM, 30 min with MitoTracker Deep Red FM, fixed. It is filed as cell-based, human. The procedure:
To study the intracellular location of uptaken Re-AO-BBN, cells were washed with PBS, incubated with MitoTracker™ Deep Red FM (1:1000, Invitrogen, Bleiswijk, The Netherlands) and Re-AO-BBN (1 µM) in FluoroBrite™ DMEM with high D-glucose for 30 min, fixed with 4% paraformaldehyde (in PBS) at 4 °C for 20 min, washed with PBS, incubated with Hoechst (0.2 µg/mL) for 1 h, washed and left submerged in PBS. Cells were imaged on a Leica TCS SP8 confocal microscope, equipped with a HC Plan Apo 20 × /0.75 dry objective, 405, 488 and 638 nm laser lines, PMT (MitoTracker) and HyD (Hoechst, Re-AO-BBN) detectors. The pinhole was set to 1 airy unit and Nyquist sampling was met in xyz (132 × 132 × 685 nm). Mitochondria accumulation was assessed by the Pearson coefficient between Re-AO-BBN and MitoTracker fluorescence intensities, considering an appropriate threshold.

Data set [2] relates to PC3 cells. Put plainly: Clonogenic assay. It is filed as cell-based, human. The settings on record: highest concentration 10^−7 M (range 10^−10–10^−7 M), 24 h at 37 °C.
Description: PC3 cells were seeded at a density of 50000 cells per well in a 24 well-plate and allowed to attach overnight. […] Immediately, after incubation, cells were seeded out in appropriate dilution to form colonies, in 2 weeks, with at least 50 cells. Colonies were fixed with methanol: glacial acetic acid (3:1) and stained with Giemsa (4%).
The Plating Efficiency (PE), ratio of the number of colonies to the number of cells seeded, and the Survival Fraction (SF), number of colonies that arise after treatment of cells, expressed in terms of PE, were obtained following the methodology described in [66], where:(1) PE=number of colonies formed /number of cells seeded×100% (2) SF=number of colonies formed after treatment/number of cells seeded×PE
The test system of data set [3] is PC3 cells. Nature of the data set: Mitochondrial ToxGlo assay (cell membrane integrity and cellular ATP levels). The settings on record: 2 h at 37 °C, HBSS with galactose and 1% BSA, CCCP 10 μM. The procedure:
PC3 cells were seeded at a density of 10,000 cells per well in a 96 well-plate and allowed to attach overnight. […] Cells incubated only with this medium were used as a basal control and cells incubated with CCCP (10 μM) as a positive control for mitochondrial inhibition. After the 2 h, the Mitochondrial Toxglo assay was performed according to the manufacturer’s instructions (Promega). Assays were performed in triplicate.

The test system of data set [4] is PC3 cells. Nature of the data set: γ-H2AX assay and foci analysis. It is filed as cell-based, human. The settings on record: 1.85 MBq, 24 h at 37 °C. The procedure: PC3 cells were seeded at a density of 10000 cells per well in an eight-well chamber slide and allowed to attach overnight. […] PC3 cells were washed three times with PBS, and fixed with 4% formaldehyde in PBS for 15 min. After washing with PBS, cells were permeabilized with Triton X-100 (0.5%) at room temperature for 5 min followed by two washing steps with 1% BSA in PBS. Then, cells were incubated with an anti-γ-H2AX primary antibody (mouse anti-γ-H2AX (ser139), Stressgen) at 2 μg/mL for 1 h. After being washed twice with 1% BSA in PBS, cells were incubated with a Texas Red-X-conjugated anti-mouse secondary antibody at […] for 1 h, followed by three washing steps with PBS. Cells were finally mounted in anti-fade mounting media with DAPI (Vectashield H-1200, Vector Laboratories).
Cells were analyzed under 64x magnification. Several high-quality 2D images were randomly collected in each slide and analyzed using the pipeline Speckle Count from the freeware CellProfiler. At least 200 nuclei were analyzed per experiment per dose. Statistical analysis was performed with Origin 7.5 software.

The next data set addresses T1, human GRPR (Homo sapiens, UniProt P30550).
T1 construct: endogenous in cells; host or cells: PC3 human prostate carcinoma cells (intact, attached)
Put plainly: Competitive radioligand binding assay against [125I-Tyr4]-BBN. The settings on record: PC3 cells, 90 min at 4 °C, one-site model, mean ± SEM of three independent experiments; read-out: IC50, displacement of [125I-Tyr4]-BBN from GRPR. As for the experimental part: The in vitro cell-binding assays were performed with the prostate carcinoma cell line PC3. Briefly, cells were seeded in 24-well plates (150,000 cells per well) and allowed to attach overnight. […] The competition was interrupted by discarding supernatants and washing the cells twice with ice-cold PBS with 0.2% BSA. Cells were then lysed with 1 M NaOH treatment (2 × 0.4 mL, 10 min at 37 °C). Lysates were collected and counted for their radioactivity content in an automated γ–counter (HIDEX AMG, Hidex, Turku, Finland).
For orientation: Displacement assays read how much labelled ligand stays bound in the presence of the test substance.

Where a SMILES comes first, the peptide text is derived from it. Where no end group is shown, it is not given here. The star is where a group is joined. X1 = Cc1nn(CCN(CCN)CCCC(=O)NCCC[n+]2c3cc(N(C)C)ccc3cc3ccc(N(C)C)cc32)c(C)c1CC(=O)*; pyrazolyl‑diamine chelator carrying TPP = not defined here

T1 sequence (P30550 whole entry): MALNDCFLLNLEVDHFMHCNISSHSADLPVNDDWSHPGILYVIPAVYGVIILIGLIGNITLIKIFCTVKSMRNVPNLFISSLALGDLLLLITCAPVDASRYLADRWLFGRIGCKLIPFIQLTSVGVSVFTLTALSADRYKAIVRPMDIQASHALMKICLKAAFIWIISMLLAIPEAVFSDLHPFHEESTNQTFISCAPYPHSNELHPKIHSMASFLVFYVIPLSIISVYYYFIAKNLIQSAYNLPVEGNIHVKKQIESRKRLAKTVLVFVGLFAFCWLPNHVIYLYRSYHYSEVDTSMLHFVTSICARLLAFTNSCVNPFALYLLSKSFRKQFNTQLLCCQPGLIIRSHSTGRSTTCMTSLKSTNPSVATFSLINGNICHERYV

With `CSCC[C@H](NC(=O)[C@H](CC(C)C)NC(=O)[C@H](Cc1c[nH]cn1)NC(=O)CNC(=O)[C@@H](NC(=O)[C@H](C)NC(=O)[C@H](Cc1c[nH]c2ccccc12)NC(=O)[C@H](CCC(N)=O)NC(=O)CNC(=O)CNC(=O)CNC(=O)Cc1c(C)nn(CCN(CCN)CCCC(=O)NCCC[n+]2c3cc(N(C)C)ccc3cc3ccc(N(C)C)cc32)c1C)C(C)C)C(N)=O` [Re-AO-BBN] (X1-GGGQWAVGHLM-NH2; C-terminus assumed), in the data set on PC3 cells [1], the “Pearson's Correlation Coefficient (PCC) of colocalization with Mitotracker dye” value was determined as 0.31. For the same compound, the “effect on survival of PC3 cells compared with the control” value in the data set on PC3 cells [2] is “no effect”.

As for cyanide-m-chlorophenylhydrazone [CCCP], the “cell membrane integrity / viability versus control” value with PC3 cells [3] (radiocomplexes 0.74 and 1.85 MBq (loss at the highest activity)) is “did not compromise their viability”. Moreover, the “ATP production / ATP levels versus control cells” value in the data set on PC3 cells [3] (radiocomplexes 0.74 and 1.85 MBq) was “significantly reduced the ATP production”.

`[O]=[99Tc](=[O])(=[O])[O-]` [^99mTcO4^−]: the “foci number / DNA damage relative to the control (in words)” value in the data set with PC3 cells [4] is reported as “did not cause any increase”.

For orientation: IC50 means the point on the concentration scale where inhibition reaches its midpoint. Regarding “Re-TPP-BBN: Re(I) congener of 99mTc-TPP-BBN, surrogate of the 99mTc complex ({pyrazolyl‑diamine chelator carrying TPP}-GGGQWAVGHLM; ends and bridges not checked; also: Re(I) complex of the chelator)”, the half-maximal inhibitory concentration (IC50) with human GRPR amounted to 0.38 ± 0.14 nM.

The values are drawn from publication PMC9266350, “Searching for a Paradigm Shift in Auger-Electron Cancer Therapy with Tumor-Specific Radiopeptides Targeting the Mitochondria and/or the Cell Nucleus” (International Journal of Molecular Sciences, 2022).
